Earlier results on two molecules are cited in US8309543B2 (priority 2003, dated 2012).

For orientation: IC50 means the concentration that inhibits the measured activity by half.

The conditions of data set [1]: in vivo.
The next data set has as its target NaV1.3 (Homo sapiens, UniProt Q9NY46). The conditions noted are these: read-out: TTX IC50.
A further data set deals with NaV1.8 (Homo sapiens, UniProt Q9Y5Y9). The conditions noted are these: read-out: TTX IC50.
Chain of NaV1.8 (Q9Y5Y9 whole entry, looked up): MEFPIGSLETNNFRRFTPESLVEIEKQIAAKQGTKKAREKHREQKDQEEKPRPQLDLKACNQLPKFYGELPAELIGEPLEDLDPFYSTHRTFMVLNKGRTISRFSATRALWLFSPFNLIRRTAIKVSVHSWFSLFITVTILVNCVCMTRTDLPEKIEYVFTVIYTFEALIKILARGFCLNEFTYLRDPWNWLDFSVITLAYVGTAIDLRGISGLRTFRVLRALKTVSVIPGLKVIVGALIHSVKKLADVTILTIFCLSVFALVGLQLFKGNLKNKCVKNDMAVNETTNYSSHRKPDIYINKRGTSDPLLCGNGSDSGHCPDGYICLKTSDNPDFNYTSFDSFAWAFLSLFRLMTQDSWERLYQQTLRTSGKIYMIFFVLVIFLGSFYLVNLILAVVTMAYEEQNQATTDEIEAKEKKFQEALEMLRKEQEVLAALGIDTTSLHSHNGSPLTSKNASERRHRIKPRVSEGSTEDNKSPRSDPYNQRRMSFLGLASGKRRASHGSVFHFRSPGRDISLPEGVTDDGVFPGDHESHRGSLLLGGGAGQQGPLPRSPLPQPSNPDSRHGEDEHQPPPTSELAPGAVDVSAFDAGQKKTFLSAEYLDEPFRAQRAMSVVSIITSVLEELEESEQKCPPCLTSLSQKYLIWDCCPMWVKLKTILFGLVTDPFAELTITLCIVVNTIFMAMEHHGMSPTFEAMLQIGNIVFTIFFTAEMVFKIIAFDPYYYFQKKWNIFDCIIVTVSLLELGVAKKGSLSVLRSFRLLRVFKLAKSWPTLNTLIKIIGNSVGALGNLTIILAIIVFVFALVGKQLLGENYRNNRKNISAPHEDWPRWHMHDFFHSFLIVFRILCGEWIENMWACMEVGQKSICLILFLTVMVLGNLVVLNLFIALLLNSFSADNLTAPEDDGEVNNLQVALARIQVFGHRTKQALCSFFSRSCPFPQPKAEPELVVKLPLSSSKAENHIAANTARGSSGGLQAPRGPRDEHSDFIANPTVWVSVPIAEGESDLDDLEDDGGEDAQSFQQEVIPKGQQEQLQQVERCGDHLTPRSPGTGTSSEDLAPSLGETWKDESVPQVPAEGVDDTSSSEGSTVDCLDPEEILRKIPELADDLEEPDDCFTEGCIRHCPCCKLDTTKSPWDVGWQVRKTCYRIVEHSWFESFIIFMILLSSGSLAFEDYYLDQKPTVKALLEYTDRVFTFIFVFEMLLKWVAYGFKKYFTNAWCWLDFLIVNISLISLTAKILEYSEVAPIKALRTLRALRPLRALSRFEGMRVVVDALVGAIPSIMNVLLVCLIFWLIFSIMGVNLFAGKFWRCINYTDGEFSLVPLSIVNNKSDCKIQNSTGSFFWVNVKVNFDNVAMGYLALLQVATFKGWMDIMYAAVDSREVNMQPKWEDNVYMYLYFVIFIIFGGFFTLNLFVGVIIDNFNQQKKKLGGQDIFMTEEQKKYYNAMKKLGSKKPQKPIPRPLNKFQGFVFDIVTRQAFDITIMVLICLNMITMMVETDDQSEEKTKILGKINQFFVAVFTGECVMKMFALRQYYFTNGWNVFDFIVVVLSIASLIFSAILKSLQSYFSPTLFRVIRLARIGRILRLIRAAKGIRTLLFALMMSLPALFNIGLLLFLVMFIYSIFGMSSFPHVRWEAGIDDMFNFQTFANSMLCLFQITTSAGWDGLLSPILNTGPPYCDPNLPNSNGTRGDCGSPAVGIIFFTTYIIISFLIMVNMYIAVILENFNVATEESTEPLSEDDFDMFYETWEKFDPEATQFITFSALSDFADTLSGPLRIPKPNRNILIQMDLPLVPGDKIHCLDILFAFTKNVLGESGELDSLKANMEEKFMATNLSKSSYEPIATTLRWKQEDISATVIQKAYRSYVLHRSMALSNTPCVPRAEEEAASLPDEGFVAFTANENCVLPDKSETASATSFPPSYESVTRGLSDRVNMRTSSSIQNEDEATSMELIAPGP

Chain of NaV1.3 (Q9NY46 whole entry, looked up): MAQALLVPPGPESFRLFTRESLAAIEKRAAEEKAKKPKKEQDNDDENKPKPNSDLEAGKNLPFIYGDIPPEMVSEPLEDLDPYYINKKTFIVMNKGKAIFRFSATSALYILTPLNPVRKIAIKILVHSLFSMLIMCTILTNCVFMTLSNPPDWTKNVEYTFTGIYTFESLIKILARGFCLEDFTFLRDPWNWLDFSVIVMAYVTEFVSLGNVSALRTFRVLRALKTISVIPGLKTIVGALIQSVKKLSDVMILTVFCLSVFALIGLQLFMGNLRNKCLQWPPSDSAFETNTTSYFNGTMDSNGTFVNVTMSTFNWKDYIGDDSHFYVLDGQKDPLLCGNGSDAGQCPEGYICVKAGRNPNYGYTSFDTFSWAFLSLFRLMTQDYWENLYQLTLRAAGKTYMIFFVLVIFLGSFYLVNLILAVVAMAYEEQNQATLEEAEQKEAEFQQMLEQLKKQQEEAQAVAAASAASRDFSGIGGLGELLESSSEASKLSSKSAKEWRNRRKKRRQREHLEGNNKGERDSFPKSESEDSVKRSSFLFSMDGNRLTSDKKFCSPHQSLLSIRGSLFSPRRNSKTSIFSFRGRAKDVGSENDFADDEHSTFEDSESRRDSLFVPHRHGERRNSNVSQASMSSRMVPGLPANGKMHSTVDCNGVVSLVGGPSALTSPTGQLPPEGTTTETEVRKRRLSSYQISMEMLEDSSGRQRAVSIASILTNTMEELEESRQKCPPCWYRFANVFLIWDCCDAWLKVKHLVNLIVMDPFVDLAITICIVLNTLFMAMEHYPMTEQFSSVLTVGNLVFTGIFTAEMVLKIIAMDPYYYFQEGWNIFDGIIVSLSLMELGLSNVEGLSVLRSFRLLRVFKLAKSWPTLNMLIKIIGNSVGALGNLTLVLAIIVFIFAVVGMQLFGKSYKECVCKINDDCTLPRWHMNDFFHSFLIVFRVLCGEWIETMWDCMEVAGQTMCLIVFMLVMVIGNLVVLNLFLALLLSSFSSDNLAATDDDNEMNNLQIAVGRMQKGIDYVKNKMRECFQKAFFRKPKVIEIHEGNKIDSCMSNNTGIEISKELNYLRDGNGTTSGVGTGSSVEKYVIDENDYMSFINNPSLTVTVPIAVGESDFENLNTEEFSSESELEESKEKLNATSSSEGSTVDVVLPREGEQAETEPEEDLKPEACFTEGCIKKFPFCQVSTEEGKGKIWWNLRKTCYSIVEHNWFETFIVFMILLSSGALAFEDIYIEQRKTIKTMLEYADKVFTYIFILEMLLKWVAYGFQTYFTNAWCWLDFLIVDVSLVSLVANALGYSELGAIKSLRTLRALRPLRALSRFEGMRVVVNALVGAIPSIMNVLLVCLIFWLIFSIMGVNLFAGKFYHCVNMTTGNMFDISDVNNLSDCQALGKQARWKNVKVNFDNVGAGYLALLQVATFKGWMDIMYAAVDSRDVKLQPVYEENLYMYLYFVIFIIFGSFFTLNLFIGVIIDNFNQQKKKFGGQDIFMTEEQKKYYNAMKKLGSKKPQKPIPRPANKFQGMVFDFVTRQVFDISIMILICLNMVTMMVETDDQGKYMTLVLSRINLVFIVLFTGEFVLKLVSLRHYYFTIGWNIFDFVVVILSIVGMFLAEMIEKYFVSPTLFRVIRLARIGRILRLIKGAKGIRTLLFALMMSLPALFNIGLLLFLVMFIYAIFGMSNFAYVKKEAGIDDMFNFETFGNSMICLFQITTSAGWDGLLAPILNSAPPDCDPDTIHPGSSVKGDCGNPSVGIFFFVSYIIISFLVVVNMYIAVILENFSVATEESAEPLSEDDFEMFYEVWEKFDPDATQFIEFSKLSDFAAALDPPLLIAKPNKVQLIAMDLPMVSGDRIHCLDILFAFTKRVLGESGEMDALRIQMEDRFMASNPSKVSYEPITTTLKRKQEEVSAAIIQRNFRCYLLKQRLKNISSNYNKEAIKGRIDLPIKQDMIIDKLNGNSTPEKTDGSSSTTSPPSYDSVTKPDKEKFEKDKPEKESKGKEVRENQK

On to `NCC1(CC(=O)O)CCCCC1` [Gabapentin], for which the “share of patients in which the drug works” value in data set [1] is reported as 60%.
Consider `NC1=N[C@H](O)[C@H]2[C@H]3O[C@]4(O)O[C@@H]([C@@H](O)[C@@]2(N1)[C@@H]4O)[C@]3(O)CO` [TTX, tetrodotoxin], for which the IC50 on NaV1.3 is 15 nM; on NaV1.8 it was above 50000 nM.
